Assay results as given in the NIST ThermoML archive (doi:10.1016/j.tca.2018.11.018).

Assay: xn = mol fraction of the nth substance listed
Conditions: 100 kPa, Liquid; for viscosity: Falling or rolling sphere viscometry; for mass density: Vibrating tube method

CCCC[N+]1(C)CCCCC1.[Br-] [N-butyl-N-methylpiperidinium bromide] + O
Conditions	mass density [kg/m3]	viscosity [mPa·s]
298.15 K, x1 = 0.03	1057.7	1.991
298.15 K, x1 = 0.06	1097.6	3.692
298.15 K, x1 = 0.089	1126.3	6.598
298.15 K, x1 = 0.124	1150.5	12.67
298.15 K, x1 = 0.159	1167.6	21.36
298.15 K, x1 = 0.195	1180.6	35.21
298.15 K, x1 = 0.244	1193.3	69.27
303.15 K, x1 = 0.03	1054.4	1.735
303.15 K, x1 = 0.06	1094.6	3.121
303.15 K, x1 = 0.089	1122.9	5.435
303.15 K, x1 = 0.124	1146.9	10.39
303.15 K, x1 = 0.159	1164	16.98
303.15 K, x1 = 0.195	1176.9	27.19
303.15 K, x1 = 0.244	1189.7	51.06
303.15 K, x1 = 0.271	1195.4	72.65
308.15 K, x1 = 0.03	1051.9	1.529
308.15 K, x1 = 0.06	1091.5	2.676
308.15 K, x1 = 0.089	1119.4	4.553
308.15 K, x1 = 0.124	1143.2	8.531
308.15 K, x1 = 0.159	1160.3	13.62
308.15 K, x1 = 0.195	1173.3	21.32
308.15 K, x1 = 0.244	1186.2	38.65
308.15 K, x1 = 0.271	1191.8	53.78
313.15 K, x1 = 0.03	1049.3	1.359
313.15 K, x1 = 0.06	1088.3	2.321
313.15 K, x1 = 0.089	1116	3.88
313.15 K, x1 = 0.124	1139.6	7.053
313.15 K, x1 = 0.159	1156.7	11.02
313.15 K, x1 = 0.195	1169.7	16.99
313.15 K, x1 = 0.244	1182.6	29.62
313.15 K, x1 = 0.271	1188.3	40.63
318.15 K, x1 = 0.03	1045.6	1.215
318.15 K, x1 = 0.06	1085.1	2.033
318.15 K, x1 = 0.089	1112.4	3.326
318.15 K, x1 = 0.124	1135.9	5.797
318.15 K, x1 = 0.159	1153	9.05
318.15 K, x1 = 0.195	1166	13.74
318.15 K, x1 = 0.244	1179	23.16
318.15 K, x1 = 0.271	1184.7	31.55
323.15 K, x1 = 0.03	1042.7	1.097
323.15 K, x1 = 0.06	1081.8	1.798
323.15 K, x1 = 0.089	1108.8	2.89
323.15 K, x1 = 0.124	1132.2	4.929
323.15 K, x1 = 0.159	1149.3	7.56
323.15 K, x1 = 0.195	1162.4	11.33
323.15 K, x1 = 0.244	1175.4	18.71
323.15 K, x1 = 0.271	1181.2	24.85
328.15 K, x1 = 0.03	1040	0.997
328.15 K, x1 = 0.06	1078.4	1.603
328.15 K, x1 = 0.089	1105.2	2.54
328.15 K, x1 = 0.124	1128.5	4.221
328.15 K, x1 = 0.159	1145.5	6.369
328.15 K, x1 = 0.195	1158.7	9.485
328.15 K, x1 = 0.244	1171.8	15.31
328.15 K, x1 = 0.271	1177.6	20.06
333.15 K, x1 = 0.03	1035.9	0.906
333.15 K, x1 = 0.06	1075	1.441
333.15 K, x1 = 0.089	1101.6	2.248
333.15 K, x1 = 0.124	1124.8	3.656
333.15 K, x1 = 0.159	1141.8	5.446
333.15 K, x1 = 0.195	1155	8.051
333.15 K, x1 = 0.244	1168.2	12.77
333.15 K, x1 = 0.271	1174	16.49
338.15 K, x1 = 0.03	1031.9	0.828
338.15 K, x1 = 0.06	1071.4	1.302
338.15 K, x1 = 0.089	1097.9	2.006
338.15 K, x1 = 0.124	1121	3.199
338.15 K, x1 = 0.159	1138	4.666
338.15 K, x1 = 0.195	1151.3	6.86
338.15 K, x1 = 0.244	1164.5	10.74
338.15 K, x1 = 0.271	1170.4	13.75
343.15 K, x1 = 0.03	1027.2	0.761
343.15 K, x1 = 0.06	1067.6	1.185
343.15 K, x1 = 0.089	1094.1	1.806
343.15 K, x1 = 0.124	1117.2	2.715
343.15 K, x1 = 0.159	1134.3	4.069
343.15 K, x1 = 0.195	1147.6	5.932
343.15 K, x1 = 0.244	1160.9	9.231
343.15 K, x1 = 0.271	1166.8	11.68
348.15 K, x1 = 0.03	1023.3	0.7
348.15 K, x1 = 0.06	1064.1	1.083
348.15 K, x1 = 0.089	1090.4	1.629
348.15 K, x1 = 0.124	1113.4	2.428
348.15 K, x1 = 0.159	1130.5	3.568
348.15 K, x1 = 0.195	1143.8	5.143
348.15 K, x1 = 0.244	1157.2	7.953
348.15 K, x1 = 0.271	1163.2	9.976
